This is an account of results in patent US7880010B2, “Crystalline forms of a dimethylphenyl compound” (Theravance, Inc., priority 2006, dated 2011).

The target of one assay is T1, hM4 muscarinic receptor (Homo sapiens, UniProt P08173).
T1 construct: expressed in transfected cells; host or cells: CHO
T1 sequence (P08173 1-479): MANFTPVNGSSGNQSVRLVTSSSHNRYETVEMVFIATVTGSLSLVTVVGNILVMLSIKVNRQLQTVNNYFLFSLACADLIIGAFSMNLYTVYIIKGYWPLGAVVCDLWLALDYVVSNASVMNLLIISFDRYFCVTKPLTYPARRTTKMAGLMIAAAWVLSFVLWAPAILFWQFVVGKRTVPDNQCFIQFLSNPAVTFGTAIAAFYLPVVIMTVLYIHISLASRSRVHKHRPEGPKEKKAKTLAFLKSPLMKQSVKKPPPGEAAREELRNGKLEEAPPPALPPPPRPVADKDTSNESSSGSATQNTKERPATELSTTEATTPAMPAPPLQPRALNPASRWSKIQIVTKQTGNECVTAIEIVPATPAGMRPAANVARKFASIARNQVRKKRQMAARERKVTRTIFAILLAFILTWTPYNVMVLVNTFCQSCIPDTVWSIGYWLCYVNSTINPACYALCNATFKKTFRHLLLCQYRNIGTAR
The assay is described as follows: Radioligand binding assay for muscarinic receptors ([3H]-NMS displacement). As to conditions: M4 muscarinic receptor subtype, CHO cell membranes, [3H]-NMS 1 nM. As for the experimental part:
(§1) CHO cell lines stably expressing cloned human hM1, hM2, hM3 and hM4 muscarinic receptor subtypes, respectively, were grown to near confluency in Hams F-12 media supplemented with 10% FBS and 250 μg/mL Geneticin. The cells were grown in a 5% CO2, 37° C. incubator and lifted with 2 mM EDTA in dPBS. Cells were collected by 5 minute centrifugation at 650×g, and cell pellets were either stored frozen at −80° C. or membranes were prepared immediately for use. For membrane preparation, cell pellets were resuspended in lysis buffer and homogenized with a Polytron PT-2100 tissue disrupter (Kinematica AG; 20 seconds×2 bursts). Crude membranes were centrifuged at 40,000×g for 15 minutes at 4° C. The membrane pellet was then resuspended with re-suspension buffer and homogenized again with the Polytron tissue disrupter. The protein concentration of the membrane suspension was determined by the method described in Lowry et al., 1951, Journal of Biochemistry, 193, 265. All membranes were stored frozen in aliquots at −80° C. or used immediately. Aliquots of prepared hM5 receptor membranes were purchased directly from PerkinElmer, Inc. (Wellesley, Mass.) and stored at −80° C. until use.
(§2) Radioligand binding assays for cloned muscarinic receptors were performed in 96-well microtiter plates in a total assay volume of 100 μL. CHO cell membranes stably expressing either the hM1, hM2, hM3, hM4 or hM5 muscarinic subtype were diluted in assay buffer to the following specific target protein concentrations (μg/well): 10 μg for hM1, 10-15 μg for hM2, 10-20 μg for hM3, 10-20 μg for hM4, and 10-12 μg for hM5 to get similar signals (cpm). The membranes were briefly homogenized using a Polytron tissue disrupter (10 seconds) prior to assay plate addition. Saturation binding studies for determining KD values of the radioligand were performed using L-[N-methyl-^3H]scopolamine methyl chloride ([^3H]-NMS) (TRK666, 84.0 Ci/mmol, Amersham Pharmacia Biotech, Buckinghamshire, England) at concentrations ranging from 0.001 nM to 20 nM. Displacement assays for determination of Ki values of test compounds were performed with [^3H]-NMS at 1 nM and eleven different test compound concentrations. The test compounds were initially dissolved to a concentration of 400 μM in dilution buffer and then serially diluted 5× with dilution buffer to final concentrations ranging from 10 pM to 100 μM. The addition order and volumes to the assay plates were as follows: 25 μL radioligand, 25 μL diluted test compound, and 50 μL membranes. Assay plates were incubated for 60 minutes at 37° C. Binding reactions were terminated by rapid filtration over GF/B glass fiber filter plates (PerkinElmer, Inc.) pre-treated in 1% BSA. Filter plates were rinsed three times with wash buffer (10 mM HEPES) to remove unbound radioactivity. The plates were then air-dried and 50 μL Microscint-20 liquid scintillation fluid (PerkinElmer, Inc.) were added to each well. The plates were then counted in a PerkinElmer Topcount liquid scintillation counter (PerkinElmer, Inc.). Binding data were analyzed by nonlinear regression analysis with the GraphPad Prism Software package (GraphPad Software, Inc., San Diego, Calif.) using the one-site competition model. Ki values for test compounds were calculated from observed IC50 values and the KD value of the radioligand using the Cheng-Prusoff equation (Cheng Y; Prusoff W H. (1973) Biochemical Pharmacology, 22(23):3099-108). […]

A further assay deals with T2, hM5 muscarinic receptor (Homo sapiens, UniProt P08912).
T2 construct: purchased PerkinElmer, Inc. (Wellesley, Mass.); host or cells: CHO cell membranes
T2 sequence (P08912 1-532): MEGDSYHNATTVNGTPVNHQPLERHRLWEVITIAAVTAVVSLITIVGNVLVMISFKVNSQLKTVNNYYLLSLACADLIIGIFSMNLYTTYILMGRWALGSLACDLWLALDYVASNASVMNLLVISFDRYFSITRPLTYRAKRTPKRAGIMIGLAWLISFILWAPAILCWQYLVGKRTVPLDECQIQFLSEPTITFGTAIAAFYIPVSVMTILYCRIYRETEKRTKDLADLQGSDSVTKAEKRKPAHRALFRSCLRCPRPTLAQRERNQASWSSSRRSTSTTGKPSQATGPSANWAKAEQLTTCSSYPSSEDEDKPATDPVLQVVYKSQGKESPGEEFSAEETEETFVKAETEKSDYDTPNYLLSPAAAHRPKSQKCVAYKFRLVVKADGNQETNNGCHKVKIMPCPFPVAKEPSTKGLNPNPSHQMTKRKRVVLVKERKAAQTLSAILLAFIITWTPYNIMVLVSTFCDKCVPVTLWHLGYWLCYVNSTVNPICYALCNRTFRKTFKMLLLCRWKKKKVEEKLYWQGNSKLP
The assay is described as above. As to conditions: M5 muscarinic receptor subtype, CHO cell membranes, [3H]-NMS 1 nM. Here is the method:
as §1, §2

Molecules are shown by their SMILES.

Take `Cc1cc(NC(=O)CCN2CCC(OC(=O)Nc3ccccc3-c3ccccc3)CC2)c(C)cc1CNC[C@H](O)c1ccc(O)c(NC=O)c1` [compound of formula I, biphenyl-2-ylcarbamic acid 1-[2-(4-{[(R)-2-(3-formylamino-4-hydroxyphenyl)-2-hydroxyethylamino]methyl}-2,5-dimethylphenylcarbamoyl)ethyl]-piperidin-4-yl ester]: the Ki at hM4 muscarinic receptor and on hM5 muscarinic receptor was less than 10 nM throughout.
